System: HT29 (colon)
Test: SRB anti-tumour (growth inhibition) assay, HT29
Format: cell-based
Details: Homo sapiens, HT-29, 48 h exposure, read-out: GI50 (concentration inhibiting 50% of cell growth)
Method: The compounds generated were tested against a series of cell lines from tumours. It quantitatively determined the cell growth and the viability, using a colorimetric assay type, using the reaction with sulforhodamine B (SRB), according to the technique described by Faircloth et al. (Journal of Tissue and Culture Methods 1988, 11, 201-205).
96-well microtitre plates are inoculated with cells (5×10^3 cells per well) in aliquots of 195 μl of medium, incubating them during 18 h, in a medium without added compound, to allow the cells to adhere to the surface. Next, the compounds to be tested are added, in samples of 5 μl, at a range of concentrations of 10 to 10^−8 μg/ml, dissolved in DMSO/EtOH (0.2% in PS buffer). After 48 h exposure, the anti-tumour effect is measured using the Sulforhodamine B (SRB) technique: the cells are fixed adding 50 μl of cold […] (50%) (w/v) and it is incubated for 60 min. at 4° C. The plates are washed with deionized water and dried. 100 μl of SRB solution (0.4% w/v in 1% acetic acid) to each well and it is incubated during 10 min. at ambient temperature. The non-bound SRB is eliminated, washing with 1% acetic acid. The plates are air dried and the bound colorant is dissolved with Tris buffer. The optical densities are read in an automatic plate spectrophotometer reader at a wavelength of 490 nm.
For the compounds of formula (III), (IV), (V), (VI), (VII), (VIII), (IX) and the compounds of formula (XII), (XIII), (XIV), (XV), (XVI) and (XVIII).

SMILES: C[C@@H]1O[C@@H](n2c3ccccc3c3c4c(c5c6ccccc6[nH]c5c32)CNC4=O)[C@H](O)[C@H](O)[C@H]1O [formula (XII), N^13-1′-β-L-rhamnosyl-k252c]
- GI50: 2.1 µM

SMILES: C[C@@H]1O[C@@H](n2c3ccccc3c3c4c(c5c6ccccc6[nH]c5c32)C(=O)NC4=O)C[C@H](O)[C@H]1O [formula (IV), N^13-1′-β-L-olivosylarcyriaflavin]
- GI50: 8.79 µM

SMILES: C[C@H]1O[C@@H](n2c3ccccc3c3c4c(c5c6ccccc6[nH]c5c32)C(=O)NC4=O)C[C@@H](O)[C@@H]1O [formula (VI), N^13-1′-β-D-olivosylarcyriaflavin]
- GI50: 2.16 µM

SMILES: C[C@]12O[C@H](C[C@H](O)[C@H]1O)n1c3ccccc3c3c4c(c5c6ccccc6n2c5c31)C(=O)NC4=O [formula (VIII), N^12-5′(S)-N^13-1′-(R)-L-olivosylarcyriaflavin]
- GI50: 11.2 µM

SMILES: C[C@]12O[C@H](C[C@H](O)[C@H]1O)n1c3ccccc3c3c4c(c5c6ccccc6n2c5c31)CNC4=O [formula (XVII), N^12-5′(S)-N^13-1′-(R)-L-olivosyl-k252c]
- GI50: 1.21 µM

SMILES: C[C@@H]1O[C@@H](n2c3ccccc3c3c4c(c5c6ccccc6[nH]c5c32)C(=O)NC4=O)C[C@@H](O)[C@H]1O [formula (V), N^13-1′-β-L-digitoxosylarcyriaflavin]
- GI50: 6.39 µM

SMILES: C[C@]12O[C@H](C[C@@H](O)[C@H]1O)n1c3ccccc3c3c4c(c5c6ccccc6n2c5c31)CNC4=O [formula (XVIII), N^12-5′(S)-N^13-1′-(R)-L-digitoxosyl-k252c]
- GI50: 1.52 µM

SMILES: C[C@]12O[C@H]([C@H](O)[C@H](O)[C@H]1O)n1c3ccccc3c3c4c(c5c6ccccc6n2c5c31)C(=O)NC4=O [formula (VII), N^12-5′(S)-N^13-1′-(R)-L-rhamnosylarcyriaflavin]
- GI50: 2.45 µM

SMILES: C[C@@H]1O[C@@H](n2c3ccccc3c3c4c(c5c6ccccc6[nH]c5c32)C(=O)NC4=O)[C@H](O)[C@H](O)[C@H]1O [formula (III), N^13-1′-β-L-rhamnosylarcyriaflavin]
- GI50: 2.42 µM

SMILES: C[C@@H]1O[C@@H](n2c3ccccc3c3c4c(c5c6ccccc6[nH]c5c32)CNC4=O)C[C@@H](O)[C@H]1O [formula (XIV), N^13-1′-β-L-digitoxosyl-k252c]
- GI50: 3.4 µM

SMILES: C[C@H]1O[C@@H](n2c3ccccc3c3c4c(c5c6ccccc6[nH]c5c32)CNC4=O)C[C@@H](O)[C@@H]1O [formula (XV), N^13-1′-β-D-olivosyl-k252c]
- GI50: 3.85 µM

SMILES: C[C@@H]1O[C@@H](n2c3ccccc3c3c4c(c5c6ccccc6[nH]c5c32)CNC4=O)C[C@H](O)[C@H]1O [formula (XIII), N^13-1′-β-L-olivosyl-k252c]
- GI50: 1.52 µM

SMILES: C[C@]12O[C@H](C[C@@H](O)[C@H]1O)n1c3ccccc3c3c4c(c5c6ccccc6n2c5c31)C(=O)NC4=O [formula (IX), N^12-5′(S)-N^13-1′-(R)-L-digitoxosylarcyriaflavin]
- GI50: 8.16 µM

SMILES: C[C@]12O[C@H]([C@H](O)[C@H](O)[C@H]1O)n1c3ccccc3c3c4c(c5c6ccccc6n2c5c31)CNC4=O [formula (XVI), N^12-5′(S)-N^13-1′-(R)-L-rhamnosyl-k252c]
- GI50: 0.87 µM

From US8598132B2, “Glycosylated indolocarbazoles, method for obtaining same and uses thereof” (Universidad de Oviedo, priority 2008, dated 2013)
